# Like-named read-outs stand apart in the source and are kept apart here.
# Legend:
# Kochia (Kochia scoparia) = assay: Test A preemergence; format: in vivo; conditions: Bassia scoparia, pre-emergence, 240 h; for pest or weed control at 125 g/ha: 125 g ai/ha; for pest or weed control at 500 g/ha: 500 g ai/ha
# Method in brief: (§1)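 Preemergence directed soil spray on seeded pots, or postemergence application to plants 2–10 cm, one- to two-leaf. Solvent mixture non-phytotoxic, with surfactant. Scored ~10 d later, visually, 0–100 vs untreated.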
# [1] = test system: pigweed (Amaranthus retroflexus); assay: Test A preemergence; format: in vivo; conditions: Amaranthus retroflexus, pre-emergence, 240 h; for pest or weed control at 125 g/ha: 125 g ai/ha; for pest or weed control at 500 g/ha: 500 g ai/ha
# [2] = test system: ryegrass, Italian (Italian ryegrass, Lolium multiflorum); assay: Test A preemergence; format: in vivo; conditions: Lolium multiflorum, pre-emergence, 240 h; for pest or weed control at 125 g/ha: 125 g ai/ha; for pest or weed control at 500 g/ha: 500 g ai/ha
# Method in brief: as §1
# [3] = test system: giant foxtail (Setaria faberii); assay: Test A preemergence; format: in vivo; conditions: Setaria faberi, pre-emergence, 240 h; for pest or weed control at 125 g/ha: 125 g ai/ha; for pest or weed control at 500 g/ha: 500 g ai/ha
# Method in brief: as §1
# [4] = test system: ragweed (common ragweed, Ambrosia elatior); assay: Test A preemergence; format: in vivo; conditions: Ambrosia artemisiifolia, pre-emergence, 240 h; for pest or weed control at 125 g/ha: 125 g ai/ha; for pest or weed control at 500 g/ha: 500 g ai/ha
# Method in brief: as §1
# [5] = preemergence, 0 to 100 scale where 0 is no effect and 100 is complete control, read-out: Kochia plant response rating
# [6] = Preemergence, visual injury vs untreated controls after approximately 10 d, read-out: Kochia plant response rating (0 to 100 scale where 0 is no effect and 100 is complete control)
# [7] = preemergence, 0 to 100 scale where 0 is no effect and 100 is complete control, read-out: Pigweed plant response rating
# [8] = Preemergence, visual injury vs untreated controls after approximately 10 d, read-out: Pigweed plant response rating (0 to 100 scale where 0 is no effect and 100 is complete control)
# [9] = preemergence, 0 to 100 scale where 0 is no effect and 100 is complete control, read-out: Ryegrass, Italian plant response rating
# [10] = Preemergence, visual injury vs untreated controls after approximately 10 d, read-out: Ryegrass, Italian plant response rating (0 to 100 scale where 0 is no effect and 100 is complete control)
# [11] = preemergence, 0 to 100 scale where 0 is no effect and 100 is complete control, read-out: Foxtail, Giant plant response rating
# [12] = Preemergence, visual injury vs untreated controls after approximately 10 d, read-out: Foxtail, Giant plant response rating (0 to 100 scale where 0 is no effect and 100 is complete control)
# [13] = preemergence, 0 to 100 scale where 0 is no effect and 100 is complete control, read-out: Ragweed plant response rating
# [14] = Preemergence, visual injury vs untreated controls after approximately 10 d, read-out: Ragweed plant response rating (0 to 100 scale where 0 is no effect and 100 is complete control)
# [15] = preemergence, visual injury rating, 0 to 100 scale where 0 is no effect and 100 is complete control, approximately 10 d, read-out: Kochia plant response rating
# [16] = preemergence, visual injury rating, 0 to 100 scale where 0 is no effect and 100 is complete control, approximately 10 d, read-out: Pigweed plant response rating
# [17] = preemergence, visual injury rating, 0 to 100 scale where 0 is no effect and 100 is complete control, approximately 10 d, read-out: Ryegrass, Italian plant response rating
# [18] = preemergence, visual injury rating, 0 to 100 scale where 0 is no effect and 100 is complete control, approximately 10 d, read-out: Foxtail, Giant plant response rating
# [19] = preemergence, visual injury rating, 0 to 100 scale where 0 is no effect and 100 is complete control, approximately 10 d, read-out: Ragweed plant response rating
Structure (SMILES),melting point [°C],pest or weed control at 125 g/ha (Kochia (Kochia scoparia); [5]) [%],"pest or weed control at 125 g/ha [1, 7] [%]","pest or weed control at 125 g/ha [3, 11] [%]",pest or weed control at 125 g/ha (Kochia (Kochia scoparia); [15]) [%],pest or weed control at 500 g/ha (Kochia (Kochia scoparia); [5]) [%],"pest or weed control at 125 g/ha [1, 16] [%]","pest or weed control at 500 g/ha [1, 7] [%]","pest or weed control at 125 g/ha [2, 17] [%]","pest or weed control at 500 g/ha [2, 9] [%]","pest or weed control at 125 g/ha [3, 18] [%]","pest or weed control at 500 g/ha [3, 11] [%]","pest or weed control at 125 g/ha [4, 19] [%]","pest or weed control at 500 g/ha [4, 13] [%]",further results
CN1CC(c2cccc(C=O)c2)C(C(=O)Nc2ccccc2F)C1=O (stereo not drawn) [Compound 844],133 to 136,0,0,0,,,,,,,,,,,"pest or weed control at 500 g/ha (Kochia (Kochia scoparia); [6]): 0%; pest or weed control at 500 g/ha [1, 8]: 0%; pest or weed control at 125 g/ha [2, 9]: 0%; pest or weed control at 500 g/ha [2, 10]: 0%; pest or weed control at 500 g/ha [3, 12]: 30%; pest or weed control at 125 g/ha [4, 13]: 0%; pest or weed control at 500 g/ha [4, 14]: 0%"
O=C1NCC(c2cccc(I)c2)C1C(=O)Nc1ccccc1F (stereo not drawn) [Compound 845],150 to 153,40,0,80,,,,,,,,,,,"pest or weed control at 500 g/ha (Kochia (Kochia scoparia); [6]): 90%; pest or weed control at 500 g/ha [1, 8]: 0%; pest or weed control at 125 g/ha [2, 9]: 0%; pest or weed control at 500 g/ha [2, 10]: 30%; pest or weed control at 500 g/ha [3, 12]: 90%; pest or weed control at 125 g/ha [4, 13]: 0%; pest or weed control at 500 g/ha [4, 14]: 0%"
O=C1NC[C@H](c2cncc(C(F)(F)F)c2)[C@H]1C(=O)Nc1ccccc1F [Compound 887],192 to 195,0,0,80,,,,,,,,,,,"pest or weed control at 500 g/ha (Kochia (Kochia scoparia); [6]): 20%; pest or weed control at 500 g/ha [1, 8]: 0%; pest or weed control at 125 g/ha [2, 9]: 0%; pest or weed control at 500 g/ha [2, 10]: 0%; pest or weed control at 500 g/ha [3, 12]: 90%; pest or weed control at 125 g/ha [4, 13]: 0%; pest or weed control at 500 g/ha [4, 14]: 0%"
C=CCOc1cccc(C2CN(C)C(=O)C2C(=O)Nc2cccc(F)c2F)c1 (stereo not drawn) [Compound 933],94 to 97,50,30,90,,,,,,,,,,,"pest or weed control at 500 g/ha (Kochia (Kochia scoparia); preemergence, visual injury rating about 10 d after treatment, 0 to 100 scale (0 no effect, 100 complete control), read-out: Kochia plant response rating): 90%; pest or weed control at 500 g/ha ([1]; preemergence, visual injury rating about 10 d after treatment, 0 to 100 scale (0 no effect, 100 complete control), read-out: Pigweed plant response rating): 30%; pest or weed control at 500 g/ha ([2]; preemergence, visual injury rating about 10 d after treatment, 0 to 100 scale (0 no effect, 100 complete control), read-out: Ryegrass, Italian plant response rating): 70%; pest or weed control at 500 g/ha ([3]; preemergence, visual injury rating about 10 d after treatment, 0 to 100 scale (0 no effect, 100 complete control), read-out: Foxtail, Giant plant response rating): 100%; pest or weed control at 500 g/ha ([4]; preemergence, visual injury rating about 10 d after treatment, 0 to 100 scale (0 no effect, 100 complete control), read-out: Ragweed plant response rating): 90%"
Cc1cc([C@H]2CN(C)C(=O)[C@@H]2C(=O)Nc2ccccc2F)on1 [Compound 1195],,,,,0,0,0,0,0,0,0,40,0,0,
Cc1c(F)cccc1NC(=O)[C@H]1C(=O)N(C)C[C@@H]1c1ccc(C(F)(F)F)nc1 [Compound 1197],,,,,100,100,80,80,70,70,100,100,100,100,
COc1cc(C(F)(F)F)ccc1[C@H]1CNC(=O)[C@@H]1C(=O)Nc1ccccc1F [Compound 1202],,,,,20,60,0,0,0,60,50,90,0,90,
COc1ccc([C@H]2CN(C)C(=O)[C@@H]2C(=O)Nc2cccc(F)c2F)c(OC)c1 [Compound 1209],,,,,60,90,0,0,0,50,90,100,60,90,
COc1cc([C@H]2CN(C)C(=O)[C@@H]2C(=O)Nc2cccc(F)c2F)cc(OC)c1OC [Compound 1210],,,,,0,10,0,0,20,50,100,100,0,0,
CSc1ccccc1NC(=O)[C@H]1C(=O)N(C)C[C@@H]1c1ccc(OC(F)F)cc1 [Compound 1212],,,,,100,100,80,90,0,70,90,100,40,90,
Cc1ccc([C@H]2CCN(C)C(=O)[C@@H]2C(=O)Nc2ccc(F)c(F)c2F)cc1 [Compound 1221],,,,,40,50,0,50,20,80,90,100,20,70,
CSc1ccccc1NC(=O)[C@H]1C(=O)N(C)CC[C@@H]1c1ccc(C)cc1 [Compound 1222],,,,,0,40,0,0,0,0,0,60,0,0,
Cc1c(F)cccc1NC(=O)[C@H]1C(=O)N(C)C[C@@H]1c1ccc(F)cc1 [Compound 1235],,,,,60,80,30,90,50,60,100,100,70,90,

# Source: patent US12077503B2, “Substituted cyclic amides and their use as herbicides” (FMC CORPORATION, priority 2015, dated 2024)
